Results from ChEMBL document CHEMBL1145881, “Pyridone-containing farnesyltransferase inhibitors: synthesis and biological evaluation” (Bioorg Med Chem Lett, 2003).

Legend:
[1] = target: T1, Protein farnesyltransferase (Homo sapiens, UniProt P49354+P49356); test: In vitro inhibitory activity against farnesyltransferase (FT); type: protein-complex assay
[2] = target: T2, Geranylgeranyl transferase type I (Homo sapiens, UniProt P49354+P53609); test: In vitro inhibitory activity against Geranylgeranyl transferase type I; type: protein-complex assay
[3] = target: T1, Protein farnesyltransferase; test: In vitro effective concentration against farnesyltransferase (FT); type: protein-complex assay
[4] = target: T1, Protein farnesyltransferase; test: In vitro inhibition of farnesyltransferase (FT) at 100 nM; type: protein-complex assay
[5] = target: T2, Geranylgeranyl transferase type I; test: In vitro inhibition of Geranylgeranyl transferase type I; NA means Not active; type: protein-complex assay
[6] = target: T1, Protein farnesyltransferase; test: In vitro effective concentration against farnesyltransferase (FT); NA= Not active; type: protein-complex assay
[7] = target: T1, Protein farnesyltransferase

| Structure (SMILES) | IC50 [1] | IC50 [2] | EC50 [3] | inhibition [4] | IC50 [5] | EC50 [6] | EC50 [7] |
| --- | --- | --- | --- | --- | --- | --- | --- |
| Cn1cncc1C(OCc1c(-c2cccc(Cl)c2)cc(C#N)c(=O)n1CC1CC1)c1ccc(C#N)cc1 (stereo not drawn) | 0.5 nM | 2000 nM | 4.8 nM | – | – | – | – |
| Cn1cncc1C(OCc1c(-c2cc(Cl)cc(Cl)c2)cc(C#N)c(=O)n1C)c1ccc(C#N)c(Cl)c1 (stereo not drawn) | 0.77 nM | 190 nM | 16 nM | – | – | – | – |
| Cn1cncc1C(OCc1c(-c2cccc(OC(F)(F)F)c2)cc(C#N)c(=O)n1C)c1ccc(C#N)cc1 (stereo not drawn) | 0.42 nM | 1050 nM | 3.9 nM | – | – | – | – |
| Cn1cncc1C(OCc1ccc(C#N)cn1)c1ccc(C#N)c(-c2cccc3ccccc23)c1 (stereo not drawn) | 0.73 nM | – | 5.9 nM | – | – | – | – |
| Cn1cncc1C(OCc1c(-c2cccc(Cl)c2)cc(C#N)c(=O)n1C)c1ccc(C#N)c(Br)c1 (stereo not drawn) | 1.3 nM | 610 nM | 39 nM | – | – | – | – |
| Cc1ncc(C(OCc2c(-c3cccc(Cl)c3)cc(C#N)c(=O)n2C)c2ccc(C#N)cc2)n1C (stereo not drawn) | 5.3 nM | > 900 nM | – | 75% | – | – | – |
| Cn1cncc1C(OCc1c(-c2cc(Cl)cc(Cl)c2)cc(C#N)c(=O)n1C)c1ccc(C#N)cc1 (stereo not drawn) | 0.46 nM | 1700 nM | 6.8 nM | – | – | – | – |
| Cn1cncc1C(OCc1c(-c2ccc(OC(F)(F)F)cc2)cc(C#N)c(=O)n1C)c1ccc(C#N)c(Br)c1 (stereo not drawn) | 0.89 nM | 220 nM | 10 nM | – | – | – | – |
| Cn1c(COC(c2ccc(C#N)cc2)c2c[nH]cn2)c(-c2cccc(Cl)c2)cc(C#N)c1=O (stereo not drawn) | 71 nM | – | – | – | Not Active | Not Active | – |
| CCCn1c(COC(c2ccc(C#N)cc2)c2cncn2C)c(-c2cccc(Cl)c2)cc(C#N)c1=O (stereo not drawn) | 0.036 nM | 3000 nM | 12 nM | – | – | – | – |
| Cn1cncc1C(OCc1c(-c2cccc(Cl)c2)cc(C#N)c(=O)n1C)c1ccc(C#N)c(I)c1 (stereo not drawn) | 0.75 nM | > 1000 nM | 88 nM | – | – | – | – |
| Cn1cncc1C(OCc1c(-c2ccc(Cl)c(Cl)c2)cc(C#N)c(=O)n1C)c1ccc(C#N)cc1 (stereo not drawn) | 0.49 nM | 2300 nM | 86 nM | – | – | – | – |
| Cn1cncc1C(OCc1c(-c2ccc(F)c(F)c2)cc(C#N)c(=O)n1C)c1ccc(C#N)cc1 (stereo not drawn) | 1.5 nM | 5500 nM | 10 nM | – | – | – | – |
| Cn1cncc1C(OCc1c(-c2cc(Cl)ccc2Cl)cc(C#N)c(=O)n1C)c1ccc(C#N)cc1 (stereo not drawn) | 1.6 nM | 2900 nM | – | – | – | – | 1.2 nM |
| Cn1cncc1C(OCc1c(-c2ccc(OC(F)(F)F)cc2)cc(C#N)c(=O)n1C)c1ccc(C#N)c(-c2cccc(Cl)c2)c1 (stereo not drawn) | 1.3 nM | 30 nM | > 100 nM | – | – | – | – |
| Cn1cncc1C(OCc1c(-c2cc(Cl)cc(Cl)c2)cc(C#N)c(=O)n1C)c1ccc(C#N)c(-c2cccc(Cl)c2)c1 (stereo not drawn) | 2 nM | 120 nM | – | – | – | Not Active | – |
| Cn1cncc1C(OCc1c(-c2cccc(Cl)c2F)cc(C#N)c(=O)n1C)c1ccc(C#N)cc1 (stereo not drawn) | 1.8 nM | 1500 nM | 24 nM | – | – | – | – |
| Cn1cncc1C(OCc1c(-c2cccc(Br)c2)cc(C#N)c(=O)n1C)c1ccc(C#N)cc1 (stereo not drawn) | 0.51 nM | 3400 nM | 2.1 nM | – | – | – | – |
| Cn1cncc1C(OCc1c(-c2ccc(F)c(Cl)c2)cc(C#N)c(=O)n1C)c1ccc(C#N)cc1 (stereo not drawn) | 1.1 nM | 1900 nM | 15 nM | – | – | – | – |
| Cn1cncc1C(OCc1c(-c2ccc3c(c2)OC(F)(F)O3)cc(C#N)c(=O)n1C)c1ccc(C#N)cc1 (stereo not drawn) | 0.69 nM | 6200 nM | 19 nM | – | – | – | – |
| Cn1cncc1C(OCc1c(-c2cc(Cl)cc(Cl)c2)cc(C#N)c(=O)n1C)c1ccc(C#N)c(Br)c1 (stereo not drawn) | 0.42 nM | 290 nM | > 100 nM | – | – | – | – |

| Structure (SMILES) | IC50 [1] | IC50 [2] | EC50 [3] | inhibition [4] | IC50 [5] | EC50 [6] | EC50 [7] |
| --- | --- | --- | --- | --- | --- | --- | --- |
| CCOc1cccc(-c2cc(C#N)c(=O)n(C)c2COC(c2ccc(C#N)cc2)c2cncn2C)c1 (stereo not drawn) | 0.67 nM | 1500 nM | 0.81 nM | – | – | – | – |
| Cn1cncc1C(OCc1[nH]c(=O)c(C#N)cc1-c1cccc(Cl)c1)c1ccc(C#N)cc1 (stereo not drawn) | 0.85 nM | 820 nM | > 100 nM | – | – | – | – |
| Cn1c(COC(c2ccc(C#N)cc2)c2cncs2)c(-c2cc(Cl)cc(Cl)c2)cc(C#N)c1=O (stereo not drawn) | 1.9 nM | > 10000 nM | > 100 nM | – | – | – | – |
| COc1cccc(-c2cc(C#N)c(=O)n(C)c2COC(c2ccc(C#N)cc2)c2cncn2C)c1 (stereo not drawn) | 0.41 nM | 3200 nM | 4.7 nM | – | – | – | – |
| Cn1cncc1C(OCc1c(-c2cccc(Cl)c2Cl)cc(C#N)c(=O)n1C)c1ccc(C#N)cc1 (stereo not drawn) | 6.1 nM | 2500 nM | – | – | – | Not Active | – |
| Cn1cncc1C(OCc1c(-c2cc(F)ccc2F)cc(C#N)c(=O)n1C)c1ccc(C#N)cc1 (stereo not drawn) | 2.7 nM | 15000 nM | 110 nM | – | – | – | – |
| Cn1cncc1C(OCc1c(-c2ccc(F)cc2F)cc(C#N)c(=O)n1C)c1ccc(C#N)cc1 (stereo not drawn) | 5.5 nM | 4300 nM | > 100 nM | – | – | – | – |
| Cn1cncc1C(OCc1c(-c2ccc(OC(F)(F)F)cc2)cc(C#N)c(=O)n1C)c1ccc(C#N)c(Cl)c1 (stereo not drawn) | 0.36 nM | 150 nM | 15 nM | – | – | – | – |
| Cn1cncc1C(OCc1c(-c2ccc(OC(F)(F)F)cc2)cc(C#N)c(=O)n1C)c1ccc(C#N)c(-c2ccc(Cl)cc2)c1 (stereo not drawn) | 6.5 nM | 160 nM | > 100 nM | – | – | – | – |
| Cn1cncc1C(OCc1c(-c2cc(F)cc(Cl)c2)cc(C#N)c(=O)n1C)c1ccc(C#N)cc1 (stereo not drawn) | 0.7 nM | 1800 nM | 17 nM | – | – | – | – |
| Cn1cncc1C(OCc1c(-c2cc(F)cc(F)c2)cc(C#N)c(=O)n1C)c1ccc(C#N)cc1 (stereo not drawn) | 0.84 nM | 12000 nM | 7.3 nM | – | – | – | – |
| Cn1cncc1C(OCc1c(-c2cc(Cl)cc(Cl)c2)cc(C#N)c(=O)n1C)c1ccc(C#N)c(I)c1 (stereo not drawn) | 0.81 nM | 7500 nM | > 100 nM | – | – | – | – |
| Cn1cncc1C(OCc1c(-c2ccc(OC(F)(F)F)cc2)cc(C#N)c(=O)n1C)c1ccc(C#N)cc1 (stereo not drawn) | 0.73 nM | 1400 nM | 3.9 nM | – | – | – | – |
| Cn1cncc1C(OCc1c(-c2cccc(Cl)c2)cc(C#N)c(=O)n1C)c1ccc(C#N)c(Cl)c1 (stereo not drawn) | 0.97 nM | 890 nM | 24 nM | – | – | – | – |
| Cn1cncc1C(OCc1c(-c2ccc(OC(F)(F)F)cc2)cc(C#N)c(=O)n1C)c1ccc(C#N)c(-c2ccccc2Cl)c1 (stereo not drawn) | 3.9 nM | 110 nM | > 100 nM | – | – | – | – |
| Cn1cncc1C(OCc1c(-c2cccc(Cl)c2)cc(C#N)c(=O)n1C)c1ccc(C#N)c(-c2cccc(Cl)c2)c1 (stereo not drawn) | 1 nM | 94 nM | 21 nM | – | – | – | – |
| Cn1c(COC(c2ccc(C#N)cc2)c2cncs2)c(-c2ccc(OC(F)(F)F)cc2)cc(C#N)c1=O (stereo not drawn) | – | – | – | – | – | Not Active | – |
| Cn1cncc1C(OCc1c(-c2cccc(F)c2F)cc(C#N)c(=O)n1C)c1ccc(C#N)cc1 (stereo not drawn) | 6.3 nM | 3400 nM | – | – | – | Not Active | – |
| Cn1cncc1C(OCc1c(-c2cccc(F)c2)cc(C#N)c(=O)n1C)c1ccc(C#N)cc1 (stereo not drawn) | 2.1 nM | > 10000 nM | 11 nM | – | – | – | – |
| CCn1c(COC(c2ccc(C#N)cc2)c2cncn2C)c(-c2cccc(Cl)c2)cc(C#N)c1=O (stereo not drawn) | 0.73 nM | 3300 nM | 2.9 nM | – | – | – | – |
| Cn1cncc1C(OCc1c(-c2ccc3c(c2)OCO3)cc(C#N)c(=O)n1C)c1ccc(C#N)cc1 (stereo not drawn) | 0.42 nM | 3300 nM | 2.1 nM | – | – | – | – |
